System: SW-620
Experiment: Antiinvasive activity in human SW620 cells assessed as reduction in cell invasion at 2 uM incubated for 72 hrs by crystal violet staining based assay relative to untreated control
Assay type: functional

C=C1[C@@H](C)[C@H]2[C@H](Cc3ccccc3)NC(=O)[C@]23[C@H](OC(C)=O)/C=C/[C@@](C)(O)C(=O)[C@@H](C)C/C=C/[C@H]3[C@@H]1O [CYTOCHALASIN D]
fold change (FC): 4

From ChEMBL document CHEMBL4616595, “Targeted suppression of metastasis regulatory transcription factor SOX2 in various cancer cell lines using a sequence-specific designer pyrrole-imidazole polyamide” (Bioorg Med Chem, 2020)
